Molecular target: T1, human IDO1 (Homo sapiens, UniProt P14902)
T1 construct: expressed in transfected cells
Assay: IDO inhibition assay in HEK293 cells stably expressing human IDO1 (kynurenine production, Ehrlich reagent, absorbance 490 nm)
Assay type: cell-based
Settings: 20 hours incubation with compound, 500 nM reference standard = 100% inhibition, read-out: IDO1 HEK Human IC50
In short: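 Kynurenine output of stably IDO1-transfected HEK293 cells was measured by absorbance at 490 nm after mixing supernatant with 0.2% Ehrlich reagent, following TCA stop (0.2% final, 50° C., 30 min). Cells were incubated 20 hours with compound. Inhibition was scaled between DMSO and 500 nM reference standard.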

T1 sequence (P14902 whole entry): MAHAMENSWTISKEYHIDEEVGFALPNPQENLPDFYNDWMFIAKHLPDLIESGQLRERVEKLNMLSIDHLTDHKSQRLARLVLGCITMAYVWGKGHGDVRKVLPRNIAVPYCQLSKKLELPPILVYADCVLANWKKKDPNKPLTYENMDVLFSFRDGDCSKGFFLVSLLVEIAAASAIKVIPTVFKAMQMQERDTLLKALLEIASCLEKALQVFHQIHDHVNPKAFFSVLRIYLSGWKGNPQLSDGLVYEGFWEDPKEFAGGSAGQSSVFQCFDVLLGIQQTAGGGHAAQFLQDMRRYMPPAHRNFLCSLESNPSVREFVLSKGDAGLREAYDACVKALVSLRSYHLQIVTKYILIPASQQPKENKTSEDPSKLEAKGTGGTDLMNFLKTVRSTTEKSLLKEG

Compared with CCN(Cc1ccccc1)c1cc(NC(=O)Cc2ccc(C#N)cc2)cc(-c2ccccc2-c2nnn[nH]2)n1 [Example 282, N-(2-(2-(1H-Tetrazol-5-yl)phenyl)-6-(benzyl(ethyl)amino)pyridin-4-yl)-2-(4-cyanophenyl)acetamide], CCCN(Cc1ccccc1)c1cc(NC(=O)Cc2ccc(C)cc2)cc(-c2ccccc2-c2nnn[nH]2)n1 [Example 291] is 12-fold lower in IC50: 1580 nM for the first, 127 nM for the second. The second is the more potent here.

CCN(Cc1ccccc1)c1cc(NC(=O)Cc2cc(C)no2)cc(-c2ccccc2-c2nnn[nH]2)n1 [Example 283] and CCCN(Cc1ccccc1)c1cc(NC(=O)Cc2cc(C)no2)cc(-c2ccccc2-c2nnn[nH]2)n1 [Example 296] are within 1.5-fold of each other in IC50: 1150 nM for the first, 797 nM for the second.

CCN(Cc1ccccc1)c1cc(NC(=O)Cc2cccnc2)cc(-c2ccccc2-c2nnn[nH]2)n1 [Example 284] and CCN(Cc1ccccc1)c1cc(NC(=O)Cc2ccc(C)nc2)cc(-c2ccccc2-c2nnn[nH]2)n1 [Example 285] are within 1.5-fold of each other in IC50: 1620 nM for the first, 2330 nM for the second.

First: Cc1ccc(NC(=O)Nc2cc(-c3ccccc3-c3nnn[nH]3)nc(N(CC(C)C)C3CCCCC3)c2)cc1 [Example 286, 1-(2-(2-(1H-Tetrazol-5-yl)phenyl)-6-(cyclohexyl(isobutyl)amino)pyridin-4-yl)-3-(p-tolyl)urea]
Second: CC(C)CN(c1cc(NC(=O)Nc2ccc(F)cc2F)cc(-c2ccccc2-c2nnn[nH]2)n1)C1CCCCC1 [Example 287, 1-(2-(2-(1H-Tetrazol-5-yl)phenyl)-6-(cyclohexyl(isobutyl)amino)pyridin-4-yl)-3-(2,4-difluorophenyl)urea]
The IC50 of the first is 16-fold lower: 365 nM for the first, 5990 nM for the second.

Compared with CCCN(Cc1ccccc1)c1cc(NC(=O)Nc2ccc3c(c2)OCO3)cc(-c2ccccc2-c2nnn[nH]2)n1 [Example 288, 1-(2-(2-(1H-Tetrazol-5-yl)phenyl)-6-(benzyl(propyl)amino)pyridin-4-yl)-3-(benzo[d][1,3]dioxol-5-yl)urea], CCCN(Cc1ccccc1)c1cc(NC(=O)Nc2cc(C)on2)cc(-c2ccccc2-c2nnn[nH]2)n1 [Example 297] is 1.7-fold higher in IC50: 155 nM for the first, 270 nM for the second.

CCCN(Cc1ccccc1)c1cc(NC(=O)Nc2ccc(C(F)(F)F)cc2)cc(-c2ccccc2-c2nnn[nH]2)n1 [Example 289, 1-(2-(2-(1H-Tetrazol-5-yl)phenyl)-6-(benzyl(propyl)amino)pyridin-4-yl)-3-(4-(trifluoromethyl)phenyl)urea] and CCCN(Cc1ccccc1)c1cc(NC(=O)N(C)c2ccc(C(F)(F)F)cc2)cc(-c2ccccc2-c2nnn[nH]2)n1 [Example 298] are within 1.5-fold of each other in IC50: 41.2 nM for the first, 38.9 nM for the second.

First: CCCN(Cc1ccccc1)c1cc(NC(=O)Cc2ccc(C#N)cc2)cc(-c2ccccc2-c2nn[nH]n2)n1 [Example 290, N-(2-(2-(1H-Tetrazol-5-yl)phenyl)-6-(benzyl(propyl)amino)pyridin-4-yl)-2-(4-cyanophenyl)acetamide]
Second: CCCN(Cc1ccccc1)c1cc(NC(=O)Cc2cccnc2)cc(-c2ccccc2-c2nn[nH]n2)n1 [Example 292]
The IC50 of the first is 7-fold lower: 483 nM for the first, 3360 nM for the second.

Going from CCCN(Cc1ccccc1)c1cc(NC(=O)Cc2ccc(C)nc2)cc(-c2ccccc2-c2nnn[nH]2)n1 [Example 293] to CCCN(Cc1ccccc1)c1cc(NC(=O)Nc2cc(C)ccn2)cc(-c2ccccc2-c2nnn[nH]2)n1 [Example 299], the IC50 falls from 1370 nM to 845 nM (1.6-fold). The second is the more potent here.

Going from CCCN(Cc1ccccc1)c1cc(NC(=O)CC2CCC(C)CC2)cc(-c2ccccc2-c2nnn[nH]2)n1 (centres unmarked) [Example 294] to CCCN(Cc1ccccc1)c1cc(NC(=O)CC2CCOCC2)cc(-c2ccccc2-c2nnn[nH]2)n1 [Example 295], the IC50 rises from 774 nM to 3730 nM (4.8-fold).

Compared with CCCN(Cc1ccccc1)c1cc(NC(=O)NC2CCCCC2)cc(-c2ccccc2-c2nnn[nH]2)n1 [Example 300], CCCN(Cc1ccccc1)c1cc(NC(=O)C2CCCCC2)cc(-c2cc(C)ccc2-c2nnn[nH]2)n1 [Example 304, N-(2-(Benzyl(propyl)amino)-6-(5-methyl-2-(1H-tetrazol-5-yl)phenyl)pyridin-4-yl)cyclohexanecarboxamide] is 4-fold lower in IC50: 5210 nM for the first, 1310 nM for the second.

First: CCCN(Cc1ccccc1)c1cc(NC(=O)Nc2ccc(C)cc2)cc(-c2cc(C)ccc2-c2nnn[nH]2)n1 [Example 301, 1-(2-(Benzyl(propyl)amino)-6-(5-methyl-2-(1H-tetrazol-5-yl)phenyl)pyridin-4-yl)-3-(p-tolyl)urea]
Second: CCCN(Cc1ccccc1)c1cc(NC(=O)Cc2ccc(C)cc2)cc(-c2cc(C)ccc2-c2nnn[nH]2)n1 [Example 303, N-(2-(Benzyl(propyl)amino)-6-(5-methyl-2-(1H-tetrazol-5-yl)phenyl)pyridin-4-yl)-2-(p-tolyl)acetamide]
The IC50 of the first is 2.2-fold lower: 46.1 nM for the first, 102 nM for the second. The first is the more potent here.

With CCCN(Cc1ccccc1)c1cc(NC(=O)Nc2ccc(Cl)cc2Cl)cc(-c2cc(C)ccc2-c2nnn[nH]2)n1 [Example 302, 1-(2-(Benzyl(propyl)amino)-6-(5-methyl-2-(1H-tetrazol-5-yl)phenyl)pyridin-4-yl)-3-(2,4-dichlorophenyl)urea] the IC50 was 5.5 nM.
